Ends that are not written are not given here.
Legend:
[1] = tested on: neurons removed from rat embryos (mesencephalon, spinal cord, cortex); assay: Biological effect of pAntp on neuritic growth of cultured neurons; type: cell-based; conditions: rat embryo neurons in CDM medium, peptide 9 µg/ml (equivalent to 1.3M), 24 h
Method: The neurons removed from rat embryos (E14 to E 16) in various regions of the brain (mesencephalon, spinal cord, cortex), are inoculated into a defined medium (CHAMAK and PROCHIANTZ, DEVELOPMENT, 106, 483, 1989) which permits the survival of only the neuronal cells (CDM medium).
The peptide is added to the nerve cells at a concentration of […] (equivalent to 1.3M).

[2] = tested on: dissociated rat embryonic neurons; assay: Distribution of 35S-methionine labelled peptides in cell compartments and medium; type: cell-based; conditions: for internalization / translocation through the membrane: 35S-labelled peptides, 2 hours; for MEDIUM (peptide distribution, radioactivity in fraction) / NUCLEAR (peptide distribution, radioactivity in fraction) / POST-NUCLEAR (peptide distribution, radioactivity in fraction): 2 hours incubation, mean ± standard deviation of 6 experiments; for share of the peptides that reach the nuclei: within 2 hours
Method: Peptides pAntp50A, pAntp48S, and pAntp40P2, labelled in E. coli with ^35 S-methionine were purified and added to dissociated rat embryonic neurons. After incubation for 2 hours, the medium was recovered by centrifugation and, after lysis of the cells with NP40, nuclear and post-nuclear fractions were isolated.
Identity of the radioactive material present in the nuclei was analysed by gel electrophoresis.
After lysis of the neurons, peptide distribution in the different cell compartments and in the medium was quantified by determination of radioactivity in each fraction.

[3] = tested on: dissociated embryonic cells; assay: Confocal microscopy of fluoresceinated peptides: internalization and nuclear accumulation; type: cell-based, rat; conditions: 2 hours incubation, cells cultured 1 day before fixation
Excerpt: The cells were then washed, plated and cultured for 1 day before fixation.

living neurons = assay: Penetration of biotinylated pAntp fragments encompassing helix 3 into living neurons; type: cell-based; conditions: biotinylated peptides 10 μg/ml, 37° C., 3 hours, fluorinated streptavidin
Method: These peptides (10 μg/ml) were separately incubated with living neurons, at 37° C. for 3 hours.
After washing and fixation of the cells, the localisation of the peptides is checked by use of fluorinated streptavidin.

| Substance | neuritic growth [1] | internalization / translocation through the membrane [2] | MEDIUM (peptide distribution, radioactivity in fraction) [2] | NUCLEAR (peptide distribution, radioactivity in fraction) [2] | POST-NUCLEAR (peptide distribution, radioactivity in fraction) [2] | share of the peptides that reach the nuclei [2] | uptake and nuclear accumulation by confocal microscopy [3] | intracellular localization of the fluorescent label (penetration) (living neurons) |
| --- | --- | --- | --- | --- | --- | --- | --- | --- |
| pAntp40P2: mutant pAntp, Leu^40 and Thr^41 substituted by two proline residues (SEQ ID NO: 12) | none of the mutants pAntp40P2, pAntp50A, and pAntp48S was able to promote neurite growth | internalized rapidly | 87.5 ± 2.5% | 11.5 ± 2% | 1.0 ± 0.5% | 10 to 20% | taken up by all cells in the population and significant concentrations of the peptides accumulated in the nuclei |  |
| pAntp48S: mutant pAntp, Trp^48, Phe^49 and Glu^50 in helix 3 replaced by a single serine residue (SEQ ID NO. 11) | none of the mutants pAntp40P2, pAntp50A, and pAntp48S was able to promote neurite growth | unable to translocate through the membrane | 96.5 ± 1% | 2.5 ± 0.5% | 1.0 ± 0.5% |  |  |  |
| pAntp50A: mutant recombinant pAntp, Glu^50 →Ala^50 substitution in helix 3 plus His^36 →Tyr cloning artifact (SEQ ID NO: 10) | none of the mutants pAntp40P2, pAntp50A, and pAntp48S was able to promote neurite growth | internalized rapidly | 75.0 ± 6% | 19.0 ± 5% | 6.0 ± 1% | 10 to 20% | taken up by all cells in the population and significant concentrations of the peptides accumulated in the nuclei |  |
| pAntp 41-55: synthetic biotinylated peptide, amino-acids 41-55 of pAntp (SEQ ID NO: 9) |  |  |  |  |  |  |  | not |
| pAntp 41-60: synthetic biotinylated peptide, amino-acids 41-60 of pAntp (SEQ ID NO: 7) (TERQIKIWFQNRRMKWKKEN; also: biotinylated, site not given here) |  |  |  |  |  |  |  | intracellular localization of the fluorescent label |
| pAntp 43-58: synthetic biotinylated peptide, amino-acids 43-58 of pAntp, helix 3 (SEQ ID NO: 8) (RQIKIWFQNRRMKWKK; also: biotinylated, site not given here) |  |  |  |  |  |  |  | intracellular localization of the fluorescent label |

Reference: patent US5888762A, “Neurotropic growth factors comprising a homeobox peptide” (Centre National De La Recherche Scientifique (CNRS), priority 1994, dated 1999)
